Counter-ions that a name gives are not always drawn.
Experiments:
[1] = test system: patients with chronic tension-type headache; experiment: Open labelled pilot study of prophylactic Dextromethorphan in chronic tension-type headache; type: in vivo, human
From the text: Five patients with a diagnosis of chronic tension-type headache according to the International Headache Society (Headache Classification Committee 1988) were recruited from the outpatient headache clinic at Glostrup Hospital. There were 2 males and 3 females, and the mean age was 45.4 years (range 39-48). The mean life time duration of chronic tension-type headache was 12.2 years (range 4-25). One patient had coexisting but infrequent migraine. Exclusion criteria were: daily major medication (including prophylactic headache therapy); abuse of analgesics or alcohol; serious somatic or psychiatric diseases including depression.
Using an open labelled design, patients fulfilled a diagnostic headache diary during at least 4 weeks run-in period to ensure the diagnostic criteria. Thereafter, the patients received Dextromethorphan (Dexofan®) tablets at 30 mg each, three times per day. The treatment period lasted 4 weeks, and during this period patients were asked to continue with headache diaries, and record headache intensity, frequency, duration, any medication taken and any possible adverse events. At a follow up visit at day 29-32, diaries were collected and possible adverse events and evaluation of the treatment were recorded. Due to the restricted number of patients, no statistical analysis were done. The efficacy parameters were headache intensity, frequency and duration, and intake of simple analgesics. Mean values from the run-in period were compared to those obtained during the treatment period.

GABA A = details: binding studies; cited from earlier work
[2] = test system: patients with chronic tension-type headache; experiment: Open labelled pilot study of prophylactic Gabapentin in chronic tension-type headache; type: in vivo, human
From the text: Three patients with a diagnosis of chronic tension-type headache according to the International Headache Society (Headache Classification Committee 1988) were recruited from the outpatient headache clinic at Glostrup Hospital. The patients were males with a mean age of 42 years (range 35-49). The mean life time duration of chronic tension-type headache was 16 years (range 7-21). […] Exclusion criteria were: daily major medication (including prophylactic headache therapy); abuse of analgesics or alcohol; serious somatic or psychiatric diseases including depression.
Using an open labelled design, patients fulfilled a diagnostic headache diary during at least 4 weeks run-in period to ensure the diagnostic criteria. Thereafter, the patients received Gabapentin (Neurontin®) tablets, initially 300 mg (one tablet) per day on day one, increasing with 300 mg (1 tablet) per day to 900 mg (3 tablets) on day 3. The treatment period lasted 4 weeks, and during this period patients were asked to continue with headache diaries, and record headache intensity, frequency, duration, any medication taken and any possible adverse events. At a follow up visit at day 29-32, diaries were collected and any adverse events and evaluation of the treatment were recorded. Due to the low number of patients, no statistical analysis were done. The primary efficacy parameters were headache intensity, frequency and duration, and the mean values from the run-in period were compared to those obtained during the treatment period.

[3] = test system: alpha-2-subunit of a calcium channel; details: Gee et al. 1996; cited from earlier work
[4] = test system: patients with chronic tension-type headache; experiment: Double-blind crossover study of intravenous L-NMMA versus placebo in chronic tension-type headache; type: in vivo, human
Description: Five patients with coexisting infrequent migraine (≤ one day/month) were accepted. […] At screening, a full physical and neurological examination, including 12-lead ECG were carried out. Blood samples for routine haematological and biochemical testing, and urine sample for urinanalysis were taken. The patients were not allowed to take analgesics 12 hours prior to the treatment. […] All patients gave written informed consent to participate in the study, which was approved by the local ethics committee and conducted in accordance with the Declaration of Helsinki.
Using a double-blind crossover design, the patients were randomised to receive 6 mg/kg L-NMMA (Clinalfa, Switzerland) or placebo (isotone glucose) on two days with a typical episode of tension-type headache separated by at least one week. Randomisation (Med.Stat) and drug preparation were performed by staff not involved in the study. The medication was given over 15 minutes into an antecubital vein (Braun Perfusor). The following parameters were measured at baseline and 15, 30, 60 and 120 minutes post administration: headache intensity on a 100-mm Visual Analog Scale (VAS) (0 - no headache and 100 - worst imaginable headache) and on a Verbal Rating Scale (VRS) from 0-10 (0 - no headache; 5 - moderate headache; 10 - worst imaginable headache). Blood pressure and pulse rate were measured 5 minutes prior to administration of treatment and at 5, 10, 15, 20, 25, 30, 60, 90 and 120 minutes post administration. Twelve-lead ECG was monitored continuously. Any adverse events were recorded. Patients with unrelieved headache at 120 minutes post treatment were allowed to take rescue medication. All patients were asked to record details of the following on a diary card at 4, 8, 12, 16, 20 and 24 hours post administration: headache intensity on VRS, any medication taken and adverse events. Between 4-7 days after each treatment, the patients returned to the clinic, the diary cards were collected and any adverse events were noted.
The secondary endpoints were reduction of pain intensity at 30, 60, 90 and 120 minutes post dosing on VAS and VRS compared to pre-treatment pain score within each treatment. Comparison of pain intensity on VAS, blood pressure and pulse rate over time between treatments were performed with ANOVA. Paired-Samples T Test was used to compare pre-treatment pain score on VAS with pain score at 30, 60, 90, 120 minutes post dosing within each treatment. […] These sums of differences for each treatment were compared by Wilcoxon Signed Rank test. Five percent was accepted as level of significance.

tension-type headache = details: Brennum et al. 1992, 1996; cited from earlier work
migraine = details: in vivo; cited from earlier work
[5] = 0-10 VAS intensity scale, mean, before treatment
[6] = 100-mm VAS, 6 mg/kg L-NMMA i.v. over 15 minutes, mean (SD), p < 0.05 vs pretreatment

SMILES: COc1ccc2c(c1)[C@]13CCCC[C@@H]1[C@H](C2)N(C)CC3 [Dextromethorphan]
- Intensity of headache during active treatment ([1]; 0-10 VAS intensity scale, mean): 3.6
- Intensity of headache during the run-in period [1, 5]: 4.4
- Frequency of headache during run-in ([1]; before treatment): 28 days per 4 weeks period
- Mean intake of analgesics during run-in period ([1]; before treatment): 1.8 dose per day
- Patients reporting a marked effect ([1]; considerable relief of headache intensity and duration within very few days, of 5 patients): Two
- Frequency of headache during active treatment ([1]; in vivo): 27 days per 4 weeks period
- Mean intake of analgesics during active treatment ([1]; in vivo): 0.5 dose per day
- Patients reporting no effect at all ([1]; of 5 patients): two
- Patients reporting no side effects ([1]; of 5 patients): Four
- Patients with a slight relief of headache intensity ([1]; of 5 patients): one
- Patients with marked side effects with sedation ([1]; the patient with best clinical response, diminished after dose reduction to 40 mg per day): one
- Reduction of intensity of headache ([1]; treatment period (4 weeks, 30 mg three times per day) vs run-in, 5 patients): 18%
- Decrease of frequency of headache ([1]; treatment period vs run-in): 4%
- Decrease of intake of analgesics ([1]; treatment period vs run-in): 72%
- Reduction of duration of the individual headache episode ([1]; treatment period vs run-in): 11%

SMILES: NCC1(CC(=O)O)CCCCC1 [Gabapentin]
- Affinity for GABA A (GABA A): fail to show affinity
- Headache intensity during active treatment ([2]; 0-10 VAS intensity scale, mean, 4 weeks): 3.6
- Headache intensity during run-in period [2, 5]: 5.5
- Frequency of headache during run-in period ([2]; before treatment): 23.5 days per 4 weeks
- Mean daily intake of analgesics, run-in ([2]; before treatment): 1.1 dose per day
- Individual response, one patient ([2]; complete relief of the headache after 2 days treatment): excellent effect
- Side effects in the third patient ([2]; disappeared completely after cessation of the drug intake): sedation, vertigo and slight nausea
- Frequency of headache during the active treatment period ([2]; in vivo): 13 days per 4 weeks
- Mean daily intake of analgesics, active treatment ([2]; in vivo): 0.3 dose per day
- Individual response, third patient ([2]; on any of efficacy parameters): no significant effect
- Individual response, another patient ([2]; on headache intensity and frequency): moderate effect
- Decrease of headache intensity ([2]; treatment period (4 weeks, up to 900 mg per day) vs run-in, 3 patients): 35%
- Decrease of frequency of headache ([2]; treatment period vs run-in): 45%
- Decrease of mean daily intake of analgesics ([2]; treatment period vs run-in): 72%
- Reduction of duration of the individual headache episode ([2]; treatment period vs run-in): 8%
- Binding affinity to the alpha-2-subunit of a calcium channel [3]: showed binding affinity

SMILES: CNC(=N)NCCC[C@H](N)C(=O)O [L-NMMA, L- N^G methyl arginine hydrochloride]
- Pain scores on VAS, 30 minutes post dosing [4, 6]: 38 ± 18
- Pain scores on VAS, 60 minutes post dosing [4, 6]: 35 ± 18
- Pain scores on VAS, 90 minutes post dosing [4, 6]: 34 ± 21
- Pain scores on VAS, 120 minutes post dosing [4, 6]: 33 ± 21
- Pain scores on VAS before treatment (Baseline) ([4]; 100-mm VAS, pre-treatment value on the L-NMMA day, 16 patients, mean (SD)): 49 ± 16
- Pain intensity on VRS compared with placebo ([4]; Verbal Rating Scale 0-10, sum of differences, Wilcoxon, p=0.02): significantly lower after treatment with L-NMMA than after treatment with placebo
- Withdrawal from the study because of side effects ([4]; in vivo): No patients withdrew from the study because of side effects
- Maximum decrease in pulse rate ([4]; occurred 10 minutes post dosing, 6 mg/kg i.v.): 16 ± 2%
- Maximum increase in mean arterial blood pressure (MAP) ([4]; occurred 15 minutes post dosing, 6 mg/kg i.v.): 12 ± 2%
- Patients reporting subjective symptoms in relation to the infusion ([4]; of 16 patients): Seven
- Subjective symptom: a feeling of tingling in arm (number of patients) ([4]; of 16 patients): 1
- Subjective symptom: drowsiness (number of patients) ([4]; of 16 patients): 1
- Subjective symptom: dryness of the mouth (number of patients) ([4]; of 16 patients): 3
- Subjective symptom: exhaustion (number of patients) ([4]; of 16 patients): 1
- Subjective symptom: nausea (number of patients) ([4]; of 16 patients): 1
- Subjective symptom: tiredness (number of patients) ([4]; of 16 patients): 2
- Patients who used simple analgesics as rescue medication ([4]; of 16 patients, 7 on placebo): Three
- Reduction of pain intensity (VAS) over time compared with placebo ([4]; primary endpoint, ANOVA, p=0.007, 16 patients, hydrochloride): reduced pain intensity (VAS) over time significantly more than placebo

SMILES: CNS(=O)(=O)Cc1ccc2[nH]cc(CCN(C)C)c2c1 [sumatriptan]
- Efficacy in tension-type headache (tension-type headache): not effective to a clinically relevant extent
- Efficacy in migraine (migraine): highly effective

Source: patent EP1829539A2, “A method for treating tension-type headache” (priority 1996, dated 1998)
